From US20040247524A1, “Method of treatment of an inflammatory disorder with a Vanin-1 antagonist” (priority 2003, published 2004)
Read-outs that look alike come from different tables or passages of the source.

Experiments:
[1] = tested on: Vanin-1; settings: cited from earlier work
[2] = tested on: GSH; experiment: GSH levels in liver of treated mice; assay type: in vivo, mouse
Description: (§1) Indomethacin (Sigma) was administered at a dose of 25 mg/kg in 5% sodium carbonate to Vanin-1^−/− (n=5) and WT (n=5) mice in 2 SC injections at 12 h-interval. Mice were sacrificed 20 hrs after the first injection. […] Cystamine was given by gavage 3 times on day 1 and once on day 2 at the dose of 120 mg/kg. The dose was adjusted so as to not induce intestinal inflammation. Mice were sacrificed 5 hours after the last gavage. To evaluate the impact of cystamine on indomethacin treatment, Vanin-1^−/− (n=5) and WT (n=5) mice received cystamine preceding indomethacin injection. In a complement study, indomethacin-treated WT mice (n=5) were supplemented with N-acetylcysteine (NAC) to determine the relationship between GSH depletion and injury. The antioxidant was given by gavage (200 μl of a 150 mg/ml, pH 7 solution) three times a day, starting 12 hrs prior indomethacin treatment.
(§2) γ-GCS activity was determined by the method described by (Seelig, 1984). GSH levels were determined according to Tietze et al., (1969).

[3] = tested on: MIP-2, iNOS, COX-2, and COX-1 mRNAs; experiment: Semi-quantitative RT-PCR of inflammatory factors in jejunum; assay type: in vivo, mouse
Description: as §1
Total cellular RNA was isolated from jejunum samples of indomethacin-treated mice, by guanidinium thiocyanate phenol-chloroform extraction.

[4] = target: T1, γ-GCS (Mus musculus, UniProt P97494); experiment: γ-GCS activity in intestine of treated mice; assay type: in vivo
T1 construct: Determination of γ-GCS Activity and GSH Levels in Liver and Intestine; from tissue; host or cells: liver and intestine of WT and Vanin-1-/- BALB/c mice
T1 sequence (P97494 1-637): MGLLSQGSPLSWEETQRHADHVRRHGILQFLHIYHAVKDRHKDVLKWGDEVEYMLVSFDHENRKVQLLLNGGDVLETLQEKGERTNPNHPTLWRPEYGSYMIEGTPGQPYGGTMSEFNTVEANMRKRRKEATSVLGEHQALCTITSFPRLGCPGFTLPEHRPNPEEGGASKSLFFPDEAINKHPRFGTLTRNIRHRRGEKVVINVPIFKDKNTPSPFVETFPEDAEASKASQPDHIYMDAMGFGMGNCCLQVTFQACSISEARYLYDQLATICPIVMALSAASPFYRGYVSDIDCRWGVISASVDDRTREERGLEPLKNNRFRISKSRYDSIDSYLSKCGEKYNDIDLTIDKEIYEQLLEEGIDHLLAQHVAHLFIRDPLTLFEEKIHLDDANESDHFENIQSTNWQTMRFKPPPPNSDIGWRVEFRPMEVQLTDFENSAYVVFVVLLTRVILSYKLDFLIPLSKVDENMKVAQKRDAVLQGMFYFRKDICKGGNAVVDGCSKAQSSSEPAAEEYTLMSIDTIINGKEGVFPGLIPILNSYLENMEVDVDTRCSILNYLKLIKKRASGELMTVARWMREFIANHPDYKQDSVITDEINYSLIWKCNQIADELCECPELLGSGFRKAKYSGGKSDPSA
T1 sequence (O09172 1-274 partner): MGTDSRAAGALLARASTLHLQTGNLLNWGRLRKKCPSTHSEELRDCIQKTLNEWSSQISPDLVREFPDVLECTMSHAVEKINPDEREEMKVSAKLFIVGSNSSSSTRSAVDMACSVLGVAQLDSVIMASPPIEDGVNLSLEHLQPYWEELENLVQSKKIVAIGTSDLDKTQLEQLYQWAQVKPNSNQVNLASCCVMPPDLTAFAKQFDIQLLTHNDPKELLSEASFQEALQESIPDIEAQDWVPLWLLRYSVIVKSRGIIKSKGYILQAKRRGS
Description: as §1, §2

[5] = target: T1, γ-GCS; experiment: γ-GCS activity in liver of treated mice; assay type: in vivo
Description: as §1, §2

[6] = tested on: GSH; experiment: GSH levels in intestine of treated mice; assay type: in vivo, mouse
Description: as §1, §2

[7] = tested on: MPO; experiment: Intestinal myeloperoxidase (MPO) activity; assay type: in vivo, mouse; settings: jejunum, after indomethacin treatment
Description: as §1, with “treatment. 3-cm intestinal samples taken in the most injured part, i.e. the colon of S. mansoni-infected mice and the jejunum of indomethacin-treated mice. Samples were homogenized in 0.5% hexadecyltrimethyl-ammonium bromide. MPO activity was determined as described previously (Liaudet, 2000).” for “treatment.”

[8] = tested on: jejunum; experiment: Histological examination of intestinal injury; assay type: in vivo, mouse; settings: following indomethacin treatment
Description: as §1
After sacrifice, jejunum of the indomethacin-treated mice were removed, formalin-fixed and paraffin-embedded. They were cut to 4-μm thickness and stained with hematoxylin-phloxine-saffron. Immunohistochemistry was performed on jejunum cryosections using the anti-Vanin-1 mAb H202-407 modified from Aurrand-Lions et al. (Aurrand-Lions, 1996).

[9] = as described by Pitari et al. (1994)
[10] = jejunum, Vanin-1−/− mice, indomethacin 2 x 25 mg/kg SC
[11] = NAC given to indomethacin-treated mice
[12] = control as in indomethacin-treated animals
[13] = cystamine administered without indomethacin

NC(=O)CI [iodoacetamide]
type of Vanin-1 (pantetheinase) inhibition [1, 9]: irreversible inhibition

OCCSSCCO [oxidized mercaptoethanol]
type of Vanin-1 (pantetheinase) inhibition [1, 9]: reversible inhibition

COc1ccc2c(c1)c(CC(=O)O)c(C)n2C(=O)c1ccc(Cl)cc1 [Indomethacin, indomethacin]
GSH ([2]; KO (Vanin-1−/−) mice): 16.6 ± 1.26 | GSH ([2]; WT mice): 9.50 ± 1.44 | COX-2 and iNOS mRNAs [3, 10]: barely amplified | MIP-2 mRNA [3, 10]: undetectable | COX-2, iNOS and MIP-2 mRNAs ([3]; jejunum, WT mice, indomethacin 2 x 25 mg/kg SC): sharp augmentation | γ-GCS ([4]; KO (Vanin-1−/−) mice): 23.7 ± 2.63 | γ-GCS ([4]; WT mice): 18.4 ± 2.18 | γ-GCS ([5]; KO (Vanin-1−/−) mice): 37.9 ± 3.33 | γ-GCS ([5]; WT mice): 23.4 ± 0.72 | γ-GCS activity, change ([5]; following indomethacin treatment): increased | GSH ([6]; KO (Vanin-1−/−) mice): 1.37 ± 0.24 | GSH ([6]; WT mice): 0.56 ± 0.08 | Intestinal MPO activity [7]: dramatically enhanced | Histology of intestinal injury ([8]; Vanin-1−/− mice): appeared normal | Histology of intestinal injury ([8]; WT mice): flattened mucosal villi

CC(=O)N[C@@H](CS)C(=O)O [NAC, N-acetylcysteine]
γ-GCS activity, effect [4, 11]: no marked effect | GSH levels, effect [6, 11]: no marked effect

CCN1C(=O)C=CC1=O [N-ethyl maleimide]
type of Vanin-1 (pantetheinase) inhibition [1, 9]: irreversible inhibition

c1cc(SSc2ccncc2)ccn1 [4,4′-dithiodipyridine]
type of Vanin-1 (pantetheinase) inhibition [1, 9]: reversible inhibition

O=C(O)CI [iodoacetate]
type of Vanin-1 (pantetheinase) inhibition [1]: irreversible inhibition

NCCSSCCN [Cystamine, cystamine]
GSH ([2]; KO (Vanin-1−/−) mice): 5.55 ± 1.20 | GSH ([2]; WT mice): 5.36 ± 1.15 | GSH levels, change [2, 12]: dramatically reduced | COX-2 mRNA [3, 13]: moderate upregulation | iNOS and MIP-2 mRNAs [3, 13]: did not change | mRNA expression of inflammatory factors ([3]; cystamine given to indomethacin-treated Vanin-1−/− mice): restored mRNA expression to WT levels | γ-GCS ([4]; KO (Vanin-1−/−) mice): 21.5 ± 2.4 | γ-GCS ([4]; WT mice): 20.2 ± 1.2 | type of Vanin-1 (pantetheinase) inhibition [1, 9]: reversible inhibition | γ-GCS ([5]; KO (Vanin-1−/−) mice): 11.2 ± 0.58 | γ-GCS ([5]; WT mice): 10.8 ± 0.63 | γ-GCS activity, change [5, 12]: dramatically reduced | GSH ([6]; KO (Vanin-1−/−) mice): 1.0 ± 0.05 | GSH ([6]; WT mice): 0.90 ± 0.12 | intestinal GSH levels, change ([6]; cystamine administration): reduced

O=C(O)c1cc(SSc2ccc([N+](=O)[O-])c(C(=O)O)c2)ccc1[N+](=O)[O-] [5,5′-dithiobis(2-nitrobenzoic acid)]
type of Vanin-1 (pantetheinase) inhibition [1, 9]: reversible inhibition
